Where “and” joins values, the source holds several entries; their conditions need not be identical. Identical values can stand only once.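 Five concentrations, 48 hours, 96-well plates. GI50 is the concentration that inhibits growth by half. TGI: concentration producing complete growth inhibition.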 Where a SMILES comes first, the peptide text is derived from it. The star is where a group is joined. Boc = CC(C)(C)OC(=O)*; OSu = O=C1CCC(=O)N1O* A value given as a limit tells only on which side of the number the result lay.

Among the test systems are CAKI-1 renal; COLO 205 colon; EKVX NSCLC; HOP-92 NSCLC; HS 578T breast; HT29 colon; MALME-3M melanoma; MOLT-4 leukemia; NCI-H460 lung; SF-268 CNS; SF-295 CNS.
Experiment in all cases: NCI anticancer screen, dose series, 48 h

On to `Cc1cn(C2CC(N)C(CN)O2)c(=O)[nH]c1=O` (stereo not given), for which the TGI with CAKI-1 renal, in the experiment with COLO 205 colon, in the experiment with EKVX NSCLC, with HOP-92 NSCLC, in the experiment on HS 578T breast and with HT29 colon was > 100 µM each time. For the same compound, the TGI with MALME-3M melanoma, with MOLT-4 leukemia, in the experiment with NCI-H460 lung, in the experiment with SF-268 CNS and in the experiment with SF-295 CNS was > 100 µM in each case.
On to `CC(=O)NC1C(OCc2ccccc2)OC(CO)C(O)C1OCC(=O)N[C@@H](C)C(=O)N[C@H](CCC(=O)NCCNCCNc1c2ccccc2nc2cccc([N+](=O)[O-])c12)C(N)=O` (stereo not given in full), for which the TGI with CAKI-1 renal was 69 µM; in the experiment on COLO 205 colon it was > 100 µM; in the experiment with EKVX NSCLC it was 91.1 µM; in the experiment with HOP-92 NSCLC, 66.5 µM; in the experiment on HS 578T breast, > 100 µM; in the experiment on HT29 colon it was 72.3 µM. The TGI was 55.5 µM with MALME-3M melanoma, 36.5 µM with NCI-H460 lung and > 100 µM in the experiment on SF-295 CNS.
Consider `O=C1CC(C(O)CO)CC(=O)N1` (stereo not given), for which the TGI with CAKI-1 renal, in the experiment on HOP-92 NSCLC, in the experiment on HS 578T breast, in the experiment with HT29 colon, with MALME-3M melanoma and in the experiment with NCI-H460 lung was > 100 µM in each case. For the same compound, the TGI in the experiment with SF-268 CNS and in the experiment with SF-295 CNS was > 100 µM each time.
On to `COc1ccc(-c2c(C#N)c(N)n(C3OC(CO)C(O)C(O)C3O)c(=S)c2C#N)cc1` (stereo not given), for which the TGI in the experiment on CAKI-1 renal is > 100 µM; in the experiment with EKVX NSCLC, > 100 µM; with HOP-92 NSCLC it was > 100 µM; in the experiment with HS 578T breast, 47.4 µM; with HT29 colon, > 100 µM; in the experiment with MALME-3M melanoma it was > 100 µM. The TGI in the experiment on MOLT-4 leukemia, in the experiment with NCI-H460 lung, in the experiment on SF-268 CNS and in the experiment on SF-295 CNS was > 100 µM throughout. Further, the GI50 in the experiment with SF-295 CNS was 64.7 µM and 22.3 µM.
In the case of `COC(=O)C1(Cc2ccccc2)Cc2cc3c(cc2C1=O)CCC3` (stereo not given), the TGI in the experiment on COLO 205 colon was 39.5 µM; in the experiment with EKVX NSCLC, 86.1 µM; in the experiment with HOP-92 NSCLC, 42.3 µM; with HS 578T breast, > 100 µM; with HT29 colon it was 36 µM; in the experiment on MALME-3M melanoma, 56.6 µM. For the same compound, the TGI in the experiment on MOLT-4 leukemia is 43.1 µM; with NCI-H460 lung it was 35 µM; in the experiment on SF-268 CNS, > 100 µM; with SF-295 CNS, > 100 µM.
For `CCOC(=O)c1sc2nc(SC)nc3c2c1N=CN3c1ccc(Br)cc1`, the TGI in the experiment with CAKI-1 renal, in the experiment on COLO 205 colon, with EKVX NSCLC, in the experiment with HOP-92 NSCLC, in the experiment with HS 578T breast and in the experiment on HT29 colon was > 100 µM each time. Also, the TGI with MALME-3M melanoma, in the experiment with MOLT-4 leukemia, in the experiment on NCI-H460 lung and in the experiment with SF-295 CNS was > 100 µM each time.
Regarding `CC(C)(C)OC(=O)NC(Cc1ccc(O)cc1)C(=O)NC(CCCCN)C(=O)NC(Cc1ccc(O)cc1)C(=O)NC(CCCCN)C(=O)ON1C(=O)CCC1=O` (stereo not given) (Boc-YKYK-OSu; configuration not given here), the TGI in the experiment with COLO 205 colon, in the experiment with EKVX NSCLC, in the experiment with HOP-92 NSCLC, with HS 578T breast, with HT29 colon and in the experiment on MALME-3M melanoma was > 100 µM in each case. Besides, the TGI in the experiment on MOLT-4 leukemia and in the experiment on NCI-H460 lung was > 100 µM in each case.
As for `O=c1oc2ccccc2c(O)c1C(c1cc(OCc2ccccc2)cc(OCc2ccccc2)c1)c1c(O)c2ccccc2oc1=O`, the TGI is 22.1 µM with CAKI-1 renal; 33.8 µM with COLO 205 colon; 41.8 µM in the experiment on EKVX NSCLC; > 28.3 µM with HOP-92 NSCLC; 89.3 µM in the experiment on HS 578T breast; 33.5 µM in the experiment on HT29 colon. In addition, the TGI with MOLT-4 leukemia was 19.8 µM; with NCI-H460 lung, 11 µM; in the experiment on SF-268 CNS, 33.3 µM; in the experiment on SF-295 CNS it was 24 µM.
As to `CCN(CC)CCOC(c1cc(OC)ccc1OC)c1ccc2n1-c1ccccc1OC2` (stereo not given), the TGI with CAKI-1 renal came to 30 µM; with COLO 205 colon it was 17.9 µM; in the experiment on EKVX NSCLC, 33.1 µM; with HOP-92 NSCLC, 9.37 µM; with HS 578T breast, 30.9 µM; in the experiment on HT29 colon, 13.9 µM. Besides, the TGI came to 35.8 µM in the experiment with MALME-3M melanoma, 26.2 µM with NCI-H460 lung, 28.8 µM in the experiment on SF-268 CNS and 23.9 µM in the experiment with SF-295 CNS.
As to `Cc1cc2c(c(C(=O)NCCC(=O)O)c1)Oc1c(cc(C)cc1C(=O)NCCC(=O)O)S2`, the TGI in the experiment with CAKI-1 renal, in the experiment on COLO 205 colon, with EKVX NSCLC, with HOP-92 NSCLC, in the experiment with HS 578T breast and in the experiment with HT29 colon was > 100 µM throughout. The TGI with MALME-3M melanoma, in the experiment with MOLT-4 leukemia, in the experiment with SF-268 CNS and in the experiment on SF-295 CNS was > 100 µM each time.
As for `c1sc(NC2=NCCO2)c2c1CCCC2`, the TGI with CAKI-1 renal, in the experiment on COLO 205 colon, in the experiment on EKVX NSCLC, in the experiment on HOP-92 NSCLC, with HS 578T breast and in the experiment with HT29 colon was > 100 µM throughout. In addition, the TGI in the experiment with MALME-3M melanoma, in the experiment on MOLT-4 leukemia, with NCI-H460 lung and in the experiment with SF-295 CNS was > 100 µM throughout.
With `COc1cc2c(cc1OCCCCCOc1cc3c(cc1OC)C(=O)N1CCC[C@H]1C(=O)N3)N=C[C@@H]1CCCN1C2=O`, the TGI was found to be 4.25 µM with CAKI-1 renal; 0.0509 µM in the experiment on COLO 205 colon; 9.54 µM in the experiment with EKVX NSCLC; 0.0973 µM in the experiment with HOP-92 NSCLC; 4.17 µM in the experiment on HS 578T breast; 10.4 µM in the experiment with SF-268 CNS. Moreover, the TGI in the experiment on SF-295 CNS was found to be 5.59 µM.
Regarding `O=C(NS(=O)(=O)Nc1ccc(Cl)cc1)OCc1ccc(Cl)cc1Cl`, the TGI with COLO 205 colon is 32.3 µM; in the experiment with HOP-92 NSCLC, 61.9 µM; with HS 578T breast, 37.5 µM; in the experiment with HT29 colon, 51.2 µM; in the experiment with MALME-3M melanoma it was 47.5 µM; in the experiment on MOLT-4 leukemia, > 100 µM. Moreover, the results for the TGI in the experiment on NCI-H460 lung, with SF-268 CNS and in the experiment with SF-295 CNS were 29.9 µM, 20.6 µM and 42.7 µM, respectively.
With `O=C(Cc1nc2ccc(C(=O)c3ccccc3)cc2[nH]c1=O)C(=O)Nc1ccc(Br)cc1`, the TGI in the experiment on CAKI-1 renal, with EKVX NSCLC, in the experiment with HOP-92 NSCLC, with HS 578T breast, in the experiment with HT29 colon and in the experiment on MALME-3M melanoma was > 100 µM in each case. The TGI in the experiment on NCI-H460 lung, in the experiment with SF-268 CNS and in the experiment on SF-295 CNS was > 100 µM throughout.
Consider `O=c1[nH]c2nc3ccccc3c(=O)n2/c1=C/c1ccc(O)cc1`, for which the TGI with CAKI-1 renal was > 100 µM; with COLO 205 colon, > 100 µM; with EKVX NSCLC it was > 100 µM; in the experiment on HOP-92 NSCLC, > 100 µM; in the experiment with HS 578T breast it was 69.7 µM; in the experiment with HT29 colon, 72 µM. For the same compound, the TGI in the experiment on MALME-3M melanoma, with MOLT-4 leukemia, with SF-268 CNS and with SF-295 CNS was > 100 µM in each case.
Regarding `O=c1c2c3ccccc3[nH]c2c2cccc3c2n1CCC3`, the TGI in the experiment with COLO 205 colon is > 100 µM; with EKVX NSCLC, 95.1 µM; in the experiment with HOP-92 NSCLC it was > 100 µM; with HS 578T breast it was > 100 µM; in the experiment on HT29 colon, > 100 µM; with MALME-3M melanoma, 71.1 µM. Further, the TGI is 86 µM with MOLT-4 leukemia, > 100 µM in the experiment with NCI-H460 lung, > 100 µM in the experiment on SF-268 CNS and > 100 µM with SF-295 CNS.
On to `[N-]=[N+]=Nc1c(Cl)c(=O)n(-c2ccccc2)c2ccccc12`, for which the TGI in the experiment with CAKI-1 renal was determined as 50.5 µM; with COLO 205 colon, 47.1 µM; with HOP-92 NSCLC it was 38.3 µM; in the experiment on HS 578T breast, 76.9 µM; in the experiment with HT29 colon, 59.3 µM; in the experiment on MALME-3M melanoma, 43.9 µM. Moreover, the TGI was 38.4 µM in the experiment on MOLT-4 leukemia, > 100 µM in the experiment with NCI-H460 lung, 43.9 µM with SF-268 CNS and > 100 µM with SF-295 CNS.
Turning to `c1cc(-c2cnc(-c3ccc4c(c3)CCCO4)o2)ccn1`, the TGI in the experiment on CAKI-1 renal was 41.5 µM; in the experiment on COLO 205 colon it was 33.1 µM; in the experiment with EKVX NSCLC it was 40.5 µM; in the experiment with HOP-92 NSCLC, 49.4 µM; in the experiment on HS 578T breast, 42.2 µM; in the experiment with HT29 colon, 41.3 µM. In addition, the TGI in the experiment with MALME-3M melanoma worked out at 30.6 µM; in the experiment on MOLT-4 leukemia, 22.2 µM; in the experiment with SF-268 CNS, 33.2 µM; in the experiment on SF-295 CNS, 37.4 µM.
Turning to `c1ccc(C[P+]2(c3ccccc3)c3ccccc3-c3ccccc32)cc1`, the TGI in the experiment on CAKI-1 renal, with COLO 205 colon, with EKVX NSCLC, with HOP-92 NSCLC, in the experiment with HS 578T breast and in the experiment on MOLT-4 leukemia was > 100 µM throughout. The TGI in the experiment on SF-268 CNS and in the experiment with SF-295 CNS was > 100 µM throughout.
Regarding `COc1ccc2c(c1)c1c(n2CCN2CCOCC2)-c2ccccc2CC1`, the TGI is > 100 µM in the experiment with CAKI-1 renal; 30.8 µM in the experiment with COLO 205 colon; > 100 µM in the experiment with HOP-92 NSCLC; 42.8 µM in the experiment with HS 578T breast; > 100 µM in the experiment on HT29 colon; 66.6 µM with MALME-3M melanoma. Moreover, the TGI was 48 µM with MOLT-4 leukemia, 89.2 µM in the experiment with NCI-H460 lung, > 100 µM in the experiment on SF-268 CNS and > 100 µM in the experiment on SF-295 CNS.
